# In patent publication US20220144838A1, “Compounds as Inhibitors of Macrophage Migration Inhibitory Factor” (NANJING IMMUNOPHAGE BIOTECH CO., LTD., priority 2019, published 2022):
# Molecular target: T1, MIF (Homo sapiens, UniProt P14174)
# T1 sequence (P14174 2-115 limits assumed): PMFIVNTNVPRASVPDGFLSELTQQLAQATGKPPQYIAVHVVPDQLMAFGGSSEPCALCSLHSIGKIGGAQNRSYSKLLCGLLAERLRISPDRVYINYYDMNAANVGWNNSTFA
# Test: MIF tautomerase assay using pHPP as substrate
# Format: biochemical
# Conditions: FIGS. 1-5; mean of multiple test results; read-out: pIC50 MIF tautomerase activity (converted)
# Method: Tautomerase Assay Using pHPP as Substrate
# This assay measured MIF's tautomerase activity in a cell-free system and was based on the determination of initial rates of the MIF-catalyzed conversion of the ketonic into the enolic tautomer of pHPP. This was achieved by spectrophotometric quantification of the complex between borate and the product of the reaction (enolic pHPP). The substrate was prepared by conversion of the enolic pHPP into its ketonic form. To achieve this, 0.5 M pHPP in methanol was diluted 10-fold with 50 mM sodium acetate buffer at pH 6.0, and then the suspension was shaken for 24 h at room temperature in darkness, and finally stored at 4° C. for not more than 1 week, with 5 min sonication being recommended before use.
# Assays were performed in small-volume clear-bottom black 96 or 384-well polystyrene plates (Greiner Bio-One). First, 2 μL of the enzyme solution containing 6 nM of MIF in DPBS, 0.025% w/v BSA, and 300 μM CHAPS was dispensed onto sample and negative control wells using Multidrop Combi with metallic tip cassettes (Thermo Fisher Scientific) previously treated with Sigmacote. Then, 2 μL of the same buffer without MIF was dispensed onto positive control wells. The reaction was started by addition of the following to all wells: 2 μL of substrate solution containing 3 mM ketonic pHPP in 200 mM boric acid, 25 mM sodium phosphate, 0.025% w/v BSA, and 300 μM CHAPS at pH 6.0. In order to remove bubbles, the plate was centrifuged in an Allegra 25R centrifuge (Beckman Coulter, Inc., Brea, Calif.) at 1000 rpm for 2 min at room temperature. Then, the plate was read in an EnVision. Final concentrations of enzyme and substrate were 3 nM and 1.5 mM, respectively. Initial rates were calculated for each well as the slope of the absorbance progress curve.
# All exemplified compounds (Examples 1-230) were tested in the MIF tautomerase assay or a similar assay described above. The data mentioned below represents a mean pIC50 value of multiple test results. It is understood that the data illustrated below may have reasonable variation depending on the specific conditions and procedures used by the person conducting the testing.
row,IC50 [nM],SMILES
1,≤ 100,"O=C(Cn1cnc2c(-n3ncc4ccccc43)nc(N3CCN(c4ccc(O)cc4)CC3)nc21)NS(=O)(=O)C1CC1 [Example 55, N-(cyclopropylsulfonyl)-2-(2-(4-(4-hydroxyphenyl)piperazin-1-yl)-6-(1H-indazol-1-yl)-9H-purin-9-yl)acetamide]"

# Same assay, conditions: inhibition of the MIF enzyme in vitro; mean of multiple test results; read-out: Tautomerase Inhibition pIC50 (converted)
row,IC50 [nM],SMILES
1,100 to 977,"CCOC(=O)Cn1cnc2c(-n3ncc4ccccc43)nc(N3CCN(c4ccc(O)cc4)CC3)nc21 [Example 44, ethyl 2-(2-(4-(4-hydroxyphenyl)piperazin-1-yl)-6-(1H-indazol-1-yl)-9H-purin-9-yl)acetate]"
2,10 to 97.7,"O=C(O)Cn1cnc2c(-n3ncc4ccccc43)nc(N3CCN(c4ccc(O)cc4)CC3)nc21 [Example 45, 2-(2-(4-(4-hydroxyphenyl)piperazin-1-yl)-6-(1H-indazol-1-yl)-9H-purin-9-yl)acetic acid]"
3,100 to 977,"O=C(O)Cn1cnc2nc(N3CCN(c4ccc(O)cc4)CC3)nc(-n3ncc4ccccc43)c21 [Example 46, 2-(2-(4-(4-hydroxyphenyl)piperazin-1-yl)-6-(1H-indazol-1-yl)-7H-purin-7-yl)acetic acid]"
4,100 to 977,"NC(=O)Cn1cnc2c(-n3ncc4ccccc43)nc(N3CCN(c4ccc(O)cc4)CC3)nc21 [Example 47, 2-(2-(4-(4-hydroxyphenyl)piperazin-1-yl)-6-(1H-indazol-1-yl)-9H-purin-9-yl)acetamide]"
5,100 to 977,"O=C(O)Cn1cnc2c(N3N=CC4C=CC=CC43)nc(N3CCN(c4ccccc4)CC3)nc21 (centres unmarked) [Example 48, 2-(6-(3a,7a-dihydro-1H-indazol-1-yl)-2-(4-phenylpiperazin-1-yl)-9H-purin-9-yl)acetic acid]"
6,> 10000,"O=C(O)Cn1cnc2c(N3N=CC4C=CC=CC43)nc(N3CCN(c4ccncc4)CC3)nc21 (centres unmarked) [Example 49, 2-(6-(3a,7a-dihydro-1H-indazol-1-yl)-2-(4-(pyridin-4-yl)piperazin-1-yl)-9H-purin-9-yl)acetic acid]"
7,1000 to 9770,"COc1ccc2cnn(-c3nc(N4CCN(c5ccc(O)cc5)CC4)nc4c3ncn4CC(=O)O)c2c1 [Example 50, 2-(2-(4-(4-hydroxyphenyl)piperazin-1-yl)-6-(6-methoxy-1H-indazol-1-yl)-9H-purin-9-yl)acetic acid]"
8,10 to 97.7,"N#Cc1ccc2c(cnn2-c2nc(N3CCN(c4ccc(O)cc4)CC3)nc3c2ncn3CC(=O)O)c1 [Example 52, 2-(6-(5-cyano-1H-indazol-1-yl)-2-(4-(4-hydroxyphenyl)piperazin-1-yl)-9H-purin-9-yl)acetic acid]"
9,10 to 97.7,"CCS(=O)(=O)NC(=O)Cn1cnc2c(-n3ncc4ccccc43)nc(N3CCN(c4ccc(O)cc4)CC3)nc21 [Example 53, N-(ethylsulfonyl)-2-(2-(4-(4-hydroxyphenyl)piperazin-1-yl)-6-(1H-indazol-1-yl)-9H-purin-9-yl)acetamide]"
10,100 to 977,"CC(C)S(=O)(=O)NC(=O)Cn1cnc2c(-n3ncc4ccccc43)nc(N3CCN(c4ccc(O)cc4)CC3)nc21 [Example 54, 2-(2-(4-(4-hydroxyphenyl)piperazin-1-yl)-6-(1H-indazol-1-yl)-9H-purin-9-yl)-N-(isopropylsulfonyl)acetamide]"
11,10 to 97.7,"O=C(Cn1cnc2c(-n3ncc4ccccc43)nc(N3CCN(c4ccc(O)cc4)CC3)nc21)NS(=O)(=O)C1CC1 [Example 55, N-(cyclopropylsulfonyl)-2-(2-(4-(4-hydroxyphenyl)piperazin-1-yl)-6-(1H-indazol-1-yl)-9H-purin-9-yl)acetamide]"
12,100 to 977,"CCCS(=O)(=O)NC(=O)Cn1cnc2c(-n3ncc4ccccc43)nc(N3CCN(c4ccc(O)cc4)CC3)nc21 [Example 56, 2-(2-(4-(4-hydroxyphenyl)piperazin-1-yl)-6-(1H-indazol-1-yl)-9H-purin-9-yl)-N-(propylsulfonyl)acetamide]"
13,10 to 97.7,"CS(=O)(=O)NC(=O)Cn1cnc2c(-n3ncc4ccccc43)nc(N3CCN(c4ccc(O)cc4)CC3)nc21 [Example 57, 2-(2-(4-(4-hydroxyphenyl)piperazin-1-yl)-6-(1H-indazol-1-yl)-9H-purin-9-yl)-N-(methylsulfonyl)acetamide]"
14,1000 to 9770,"O=C1Cc2cccnc2N1c1nc(N2CCN(c3ccc(O)cc3)CC2)nc2c1ncn2CCO [Example 58, 1-(9-(2-hydroxyethyl)-2-(4-(4-hydroxyphenyl)piperazin-1-yl)-9H-purin-6-yl)-1H-pyrrolo[2,3-b]pyridin-2(3H)-one]"

# Further lines, the molecule ahead of its results:
row,SMILES,IC50 [nM]
1,"O=C(O)Cn1cnc2c(N3Cc4ccccc4C3=O)nc(N3Cc4ccccc4C3=O)nc21 [Example 27, 2-(2,6-bis(1-oxoisoindolin-2-yl)-9H-purin-9-yl)acetic acid]",> 10000
2,"Cc1nc2ccccc2n1-c1nc(N2CCN(c3ccc(O)cc3)CC2)nc2c1ncn2CC(=O)O [Example 28, 2-(2-(4-(4-hydroxyphenyl)piperazin-1-yl)-6-(2-methyl-1H-benzo[d]imidazol-1-yl)-9H-purin-9-yl)acetic acid]",1000 to 9770
3,"O=C(O)Cn1cnc2c(-n3c(CO)nc4ccccc43)nc(N3CCN(c4ccc(O)cc4)CC3)nc21 [Example 29, 2-(6-(2-(hydroxymethyl)-1H-benzo[d]imidazol-1-yl)-2-(4-(4-hydroxyphenyl)piperazin-1-yl)-9H-purin-9-yl)acetic acid]",> 10000
4,"CCC(CO)n1cnc2c(N3CCc4ccccc43)nc(N3CCN(c4ccc(O)cc4)CC3)nc21 (centres unmarked) [Example 30, 4-(4-(9-(1-hydroxybutan-2-yl)-6-(indolin-1-yl)-9H-purin-2-yl)piperazin-1-yl)phenol]",1000 to 9770
5,"O=C(O)Cn1cnc2c(N3CCc4ccccc43)nc(N3CCN(c4ccc(O)cc4)CC3)nc21 [Example 31, 2-(2-(4-(4-hydroxyphenyl)piperazin-1-yl)-6-(indolin-1-yl)-9H-purin-9-yl)acetic acid]",100 to 977
6,"NC(=O)Cn1cnc2c(N3CCc4ccccc43)nc(N3CCN(c4ccc(O)cc4)CC3)nc21 [Example 32, 2-(2-(4-(4-hydroxyphenyl)piperazin-1-yl)-6-(indolin-1-yl)-9H-purin-9-yl)acetamide]",1000 to 9770
7,"CCOC(=O)c1nn(-c2nc(N3CCN(c4ccc(O)cc4)CC3)nc3c2ncn3CC(=O)O)c2ccccc12 [Example 33, 2-(6-(3-(ethoxycarbonyl)-1H-indazol-1-yl)-2-(4-(4-hydroxyphenyl)piperazin-1-yl)-9H-purin-9-yl)acetic acid]",10 to 97.7
8,"O=C(O)Cn1cnc2c(-c3cccc4[nH]ncc34)nc(N3CCN(c4ccc(O)cc4)CC3)nc21 [Example 34, 2-(2-(4-(4-hydroxyphenyl)piperazin-1-yl)-6-(1H-indazol-4-yl)-9H-purin-9-yl)acetic acid]",1000 to 9770
9,"O=C(O)Cn1cnc2c(-c3ccnc4[nH]ccc34)nc(N3CCN(c4ccc(O)cc4)CC3)nc21 [Example 35, 2-(2-(4-(4-hydroxyphenyl)piperazin-1-yl)-6-(1H-pyrrolo[2,3-b]pyridin-4-yl)-9H-purin-9-yl)acetic acid]",100 to 977
10,"O=C(O)Cn1cnc2c(-n3nc(-c4cccnc4)c4ccccc43)nc(N3CCN(c4ccc(O)cc4)CC3)nc21 [Example 36, 2-(2-(4-(4-hydroxyphenyl)piperazin-1-yl)-6-(3-(pyridin-3-yl)-1H-indazol-1-yl)-9H-purin-9-yl)acetic acid]",100 to 977
11,"Cc1nc(N2CCN(c3ccc(O)cc3)CC2)nc2c1ncn2-c1cccc(O)c1Cl [Example 37, 2-chloro-3-(2-(4-(4-hydroxyphenyl)piperazin-1-yl)-6-methyl-9H-purin-9-yl)phenol]",1000 to 9770
12,"Cc1cncc(-n2cnc3c(C)nc(N4CCN(c5ccc(O)cc5)CC4)nc32)c1 [Example 38, 4-(4-(6-methyl-9-(5-methylpyridin-3-yl)-9H-purin-2-yl)piperazin-1-yl)phenol]",1000 to 9770
13,"Oc1ccc(N2CCN(c3nc(N4CCc5ccccc54)c4ncn(-c5cccnc5)c4n3)CC2)cc1 [Example 39, 4-(4-(6-(indolin-1-yl)-9-(pyridin-3-yl)-9H-purin-2-yl)piperazin-1-yl)phenol]",100 to 977
14,"CCOC(=O)Cn1cnc2c(-n3cnc4ccccc43)nc(N3CCN(c4ccc(O)cc4)CC3)nc21 [Example 40, ethyl 2-(6-(1H-benzo[d]imidazol-1-yl)-2-(4-(4-hydroxyphenyl)piperazin-1-yl)-9H-purin-9-yl)acetate]",1000 to 9770
15,"O=C(O)Cn1cnc2c(-n3cnc4ccccc43)nc(N3CCN(c4ccc(O)cc4)CC3)nc21 [Example 41, 2-(6-(1H-benzo[d]imidazol-1-yl)-2-(4-(4-hydroxyphenyl)piperazin-1-yl)-9H-purin-9-yl)acetic acid]",10 to 97.7
16,"CNC(=O)Cn1cnc2c(-n3cnc4ccccc43)nc(N3CCN(c4ccc(O)cc4)CC3)nc21 [Example 42, 2-(6-(1H-benzo[d]imidazol-1-yl)-2-(4-(4-hydroxyphenyl)piperazin-1-yl)-9H-purin-9-yl)-N-methylacetamide]",1000 to 9770
17,"Cc1nc(N2CCN(c3ccc(O)cc3)CC2)nc2c1ncn2-c1ccccc1 [Example 43, 4-(4-(6-methyl-9-phenyl-9H-purin-2-yl)piperazin-1-yl)phenol]",100 to 977
